Source: patent US20130303509A1, “NAMPT INHIBITORS” (AbbVie Inc., priority 2012, published 2013)

Tested on: PC3 cells
Assay: NAMPT Cell Proliferation Assay
Assay type: cell-based
Details: Homo sapiens, PC-3, 120 h, 5 days incubation, cell viability by Cell Titer Glo
Procedure, shortened: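 Five-day CellTiter-Glo viability readout in PC3 cells grown in RPMI/10% heat-inactivated FBS. Compounds added after overnight attachment as a 10-fold dilution series, […]. Percent inhibition fitted to sigmoidal dose-response to derive IC50.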

With `O=C(Nc1ccc(C2CCN(C(=O)Cc3cccc(C(F)(F)F)c3)CC2)cc1)C1CN(c2ccnnc2)C1` [Example 550, 1-(pyridazin-4-yl)-N-[4-(1-{[3-(trifluoromethyl)phenyl]acetyl}piperidin-4-yl)phenyl]azetidine-3-carboxamide] the IC50 was 8.21 nM.
Work on `O=C(Nc1ccc(C2CCN(C(=O)c3ccccc3F)CC2)cc1)C1CN(c2ccnnc2)C1` [Example 551, N-{4-[1-(2-fluorobenzoyl)piperidin-4-yl]phenyl}-1-(pyridazin-4-yl)azetidine-3-carboxamide] yielded an IC50 of 0.48 nM.
`O=C(Nc1ccc(C2CCN(C(=O)c3cc(F)cc(F)c3)CC2)cc1)C1CN(c2ccnnc2)C1` [Example 552, N-{4-[1-(3,5-difluorobenzoyl)piperidin-4-yl]phenyl}-1-(pyridazin-4-yl)azetidine-3-carboxamide] showed an IC50 of 3.32 nM.
`O=C(Nc1ccc(C2CCN(C(=O)c3ccc(C(F)(F)F)cc3)CC2)cc1)C1CN(c2ccnnc2)C1` [Example 553, 1-(pyridazin-4-yl)-N-(4-{1-[4-(trifluoromethyl)benzoyl]piperidin-4-yl}phenyl)azetidine-3-carboxamide] was tested, and the IC50 was 44.1 nM.
`O=C(Nc1ccc(C2CCN(C(=O)c3cccc(F)c3)CC2)cc1)C1CN(c2ccnnc2)C1` [Example 554, N-{4-[1-(3-fluorobenzoyl)piperidin-4-yl]phenyl}-1-(pyridazin-4-yl)azetidine-3-carboxamide] was tested, and the IC50 was 2.63 nM.
Work on `O=C(Nc1ccc(C2CCN(C(=O)c3ccc(OC(F)(F)F)cc3)CC2)cc1)C1CN(c2ccnnc2)C1` [Example 555, 1-(pyridazin-4-yl)-N-(4-{1-[4-(trifluoromethoxy)benzoyl]piperidin-4-yl}phenyl)azetidine-3-carboxamide] yielded an IC50 of 23.9 nM.
`CC(C)CC(=O)N1CCC(c2ccc(NC(=O)C3CN(c4ccnnc4)C3)cc2)CC1` [Example 556, N-{4-[1-(3-methylbutanoyl)piperidin-4-yl]phenyl}-1-(pyridazin-4-yl)azetidine-3-carboxamide] was tested, and the IC50 was 5.98 nM.
Work on `O=C(Nc1ccc(C2CCN(C(=O)CC(F)(F)F)CC2)cc1)C1CN(c2ccnnc2)C1` [Example 557, 1-(pyridazin-4-yl)-N-{4-[1-(3,3,3-trifluoropropanoyl)piperidin-4-yl]phenyl}azetidine-3-carboxamide] yielded an IC50 of 10.2 nM.
For `O=C(Nc1ccc(C2CCN(C(=O)C(F)(F)c3ccccc3)CC2)cc1)C1CN(c2ccnnc2)C1` [Example 558, N-(4-{1-[difluoro(phenyl)acetyl]piperidin-4-yl}phenyl)-1-(pyridazin-4-yl)azetidine-3-carboxamide], the IC50 was 0.66 nM.
`CC(C)(C)C(=O)N1CCC(c2ccc(NC(=O)C3CN(c4ccnnc4)C3)cc2)CC1` [Example 559, N-{4-[1-(2,2-dimethylpropanoyl)piperidin-4-yl]phenyl}-1-(pyridazin-4-yl)azetidine-3-carboxamide] was tested, and the IC50 was 1.33 nM.
`O=C(Nc1ccc(C2CCN(C(=O)C3CCC(F)(F)CC3)CC2)cc1)C1CN(c2ccnnc2)C1` [Example 560, N-(4-{1-[(4,4-difluorocyclohexyl)carbonyl]piperidin-4-yl}phenyl)-1-(pyridazin-4-yl)azetidine-3-carboxamide] gave an IC50 of 5.85 nM.
In the case of `O=C(Nc1ccc(C2CCN(C(=O)Cc3ccc(OC(F)(F)F)cc3)CC2)cc1)C1CN(c2ccnnc2)C1` [Example 561, 1-(pyridazin-4-yl)-N-[4-(1-{[4-(trifluoromethoxy)phenyl]acetyl}piperidin-4-yl)phenyl]azetidine-3-carboxamide], the IC50 is reported as 62.2 nM.
In the case of `O=C(Nc1ccc(C2CCN(C(=O)c3cccc(OC(F)(F)F)c3)CC2)cc1)C1CN(c2ccnnc2)C1` [Example 562, 1-(pyridazin-4-yl)-N-(4-{1-[3-(trifluoromethoxy)benzoyl]piperidin-4-yl}phenyl)azetidine-3-carboxamide], the IC50 is reported as 9.45 nM.
Work on `O=C(Nc1ccc(C2CCN(C(=O)Cc3ccc(C(F)(F)F)cc3)CC2)cc1)C1CN(c2ccnnc2)C1` [Example 563, 1-(pyridazin-4-yl)-N-[4-(1-{[4-(trifluoromethyl)phenyl]acetyl}piperidin-4-yl)phenyl]azetidine-3-carboxamide] yielded an IC50 of 24.2 nM.
